According to patent US12678440B2, “Compositions and methods for treating misfolded protein ocular disorders” (CASE WESTERN RESERVE UNIVERSITY, priority 2020, dated 2026):

Tests used:
Assay type in all cases: cell-based
P23H rhodopsin [1] = test: Rhodopsin dot blot of NIH3T3 stable cells; conditions: 10 μM, 24 h, vs DMSO
Method: NIH3T3 (RHO^P23H/GFP) or NIH3T3 (RHO^WT/GFP) cells were seeded at 2.5×10^4 cells/well in 100 μL/well complete medium in a 96-well plate and cultured at 37° C. with 5% CO2 for 4 h. Cells then were treated with 100 μL/well complete medium containing 2×the final concentration of tested compounds. After 24 h of further incubation at 37° C. with 5% CO2, the medium was aspirated, and the cells were washed once with PBS. The cell lysis buffer containing radioimmunoprecipitation assay (RIPA) buffer and complete protease inhibitor cocktail (Roche Diagnostics, Basel, Switzerland) were added to the cells at 200 μL/well followed by sonication for 6 s. Because the cellular protein level of RHO^WT was higher than RHO^P23H, 5% of one well NIH3T3 (RHO^WT/GFP) cells samples and 90% of one well NIH3T3 (RHO^P23H/GFP) cells samples were loaded to a nitrocellulose membrane and air-dried. Opsin protein was immunostained with 0.1 μg/mL HRP-conjugated 1D4 anti-rhodopsin antibody. Densitometry of the bands was measured by the ImageJ software and normalized to DMSO-treating control.

[2] = test system: P23H mutant mouse rhodopsin fused with Renilla luciferase (Rluc); test: Rluc (luciferase) reporter assay in Hek293 (RHO^P23H-Rluc) cells; conditions: for Efficacy, Rluc assay Hek293 (RHO^P23H − Rluc): 24 h, DMSO 0%, Evans Blue −100% controls; for EC50: 24 h compound treatment, dose-response, triplicate
Description: Two Hek293 stable cell lines, Hek293 (RHO^WT-Rluc) and Hek293 (RHO^P23H-Rluc) cells were generated which stably express the WT and P23H mutant mouse rhodopsin each fused with a Renilla luciferase (Rluc) for the luciferase reporter assay as previously described. Briefly, the Hek 293 cells (ATCC, Manassas, VA, USA) were transfected with the pcDNA3.1 Zeo containing the cDNA of mouse WT or P23H rhodopsin fused with a Rluc 8 (a gift from Dr. Navine Lambert at Augusta University, Augusta, GA USA) and transfected cells were incubated in Dulbecco's modified Eagle's medium (DMEM, Genesee Scientific, E1 Cajon, CA USA) with 10% fetal bovine serum (FBS, Gibco Laboratories, Gaithersburg, MD USA) for 48 h before addition of 400 μg/mL of Zeocin (InvivoGen, San Diego, CA USA) for positive clone selection. Colonies of cells survived from 1 week of Zeocin selection were collected, and expression of WT and P23H rhodopsin were confirmed by a luciferase assay and immunoblotting of rhodopsin with positive bands of monomers at about 70 kD (FIG. 8). The difference of molecular masses between WT and P23H rhodopsin proteins was due to differences in glycosylation, which was also seen in the NIH3T3 cells expressing the WT and P23H rhodopsin proteins.
The HTS was performed at three facilities, including University of Cincinnati (UC), Case Western Reserve University, and National Center for Advancing Translational Sciences (NCATS), testing a total of six compound collections. These compound collections include: 1) the UC 10K Diversity Set (10,011 compounds), 2) the Life Chemicals 50K Collection (50,560), 3) the Spectrum Collection (2,400 compounds), 4) the LOPAC collection (1,280 compounds), 5) the FDA collection (2,816 compounds), and 6) the NCATS MIPE collection (1,912 compounds). […] For the compound collections 1), 2) and 3), we firstly tested each compound using the P23H rhodopsin luciferase reporter assay at a single dose for once (9.93 to 16.13 μM) in 384-well format, and we identified 2072 compounds with activity scores lower than the cutoff at mean-2SD. Activity scores were normalized using DMSO treated cells as 0% control and the 1 mM Evans Blue treated cells as −100% control. From these hit compounds, we excluded those reported with luciferase inhibitor activities and cherry-picked the rest for hit confirmation. Each hit was tested at 10 μM in the Hek293 (RHO^P23H-Rluc) cells again by the luciferase reporter assay in triplicates, and the confirmed hits with activity scores lower than-50% were then counter screened for their effects on Rluc activity by the recombinant Rluc activity assay, and on WT rhodopsin level by the luciferase reporter assay in the Hek293 (RHO^WT-Rluc) cells at 10 μM in triplicates, respectively. […] Next, we tested the dose responses of these confirmed hits in both the Hek293 (RHO^P23H-Rluc) and the Hek293 (RHO^WT-Rluc) cells and identified compounds that selectively favored the clearance of P23H than WT rhodopsin in a dose-dependent manner (Table 4). For the compound collections 4)-6), we tested each compound directly at 7 or 11 doses using the luciferase reporter assay in the Hek293 (RHO^P23H-Rluc) cells in 1536-well format, and identified 128 compounds with efficacy smaller than-50% and EC50<20 μM.
The Rluc reporter assay has been described before. HTS was undertaken in 384-well format for the UC 10K Diversity Set, Spectrum Collection and the Life Chemicals 50K diversity set, and in 1536-well format for the FDA, LOPAC, and MIPE collections. Using the 384-well format as an example, Hek (RHO^P23H-Rluc) cells were seeded in 384-well white-wall clear-bottom plates (assay plates) at 3×10^5/mL for 40 μL/well by an 8-channel Multiflo liquid dispenser (Bioteck, Winooski, VT USA). The assay plates were centrifuged at 300×g for 30 s and cultured at 37° C. with 5% CO2 overnight. […]

P23H rhodopsin [3] = test: Non-radioactive pulse-chase assay in NIH3T3 (RHO^P23H/GFP) cells; conditions: 10 μM; for Rate of Rho^P23H degradation (Pulse-chase): 24 h of chase, vs DMSO; for BTN-AHA labeled P23H rhodopsin at 24 h of chase: in comparison to DMSO control
Method: To quantify rhodopsin degradation, a non-radioactive pulse-chase assay was used with a ‘click’ reaction. Briefly, NIH3T3 (Rho^P23H/GFP) or NIH3T3 (Rho^WT/GFP) cells were cultured in a 24-well plate at 3×10^5 cells/well in the complete medium with 10% FBS. The medium was aspirated after overnight culture, and cells were gently washed once with 1 mL/well of PBS. Cell were incubated in the L-methionine-free DMEM (Gibco, 21013-024, Gaithersburg, MD USA) for 1 h to exhaust the intracellular methionine. Then the cells were pulsed with L-AHA at final concentration 50 μM for 4 h. Meanwhile, the cells treated with 50 μM L-methionine were used as negative control. After labeling, cells were replaced with the complete DMEM medium with 2 mM L-methionine in the presence or absence of active compounds for a varying time of chase. Then cells were lysed with PBS containing 0.1% SDS, 1% DDM and the complete protease inhibitor cocktail. The total protein concentrations were measured by a BCA assay. Cell lysate containing 200 μg total protein was mixed with 5 μM BTN-sDIBO to make a ‘click’ reaction for 1 h at 37° C. Samples were incubated with Dynabeads™ Protein G binding with 1D4 anti-rhodopsin antibody for 15 min at room temperature followed by three washes with PBS containing 0.02% Tween 20. Proteins were eluted with 50 mM Glycine at pH 2.8 for 10 min at room temperature and then loaded onto nitrocellulose membranes. After air-dried, the membranes were blocked with 5% milk and immunoblotted with 0.25 μg/mL HRP-conjugated SA.

Row | Structure (SMILES) | EC50 [2] [nM] | Rho protein level (Dot blot) (P23H rhodopsin [1]) | Efficacy, Rluc assay Hek293 (RHO^P23H − Rluc) [2] [%] | Rate of Rho^P23H degradation (Pulse-chase) (P23H rhodopsin [3]) | BTN-AHA labeled P23H rhodopsin at 24 h of chase (P23H rhodopsin [3])
1 | CC(=O)OC(CC(=O)O)C[N+](C)(C)C (centres unmarked) [CL-002] | 2000 | Down | −86.1 | Up | significantly reduced
2 | CC(O)CN (centres unmarked) [CL-004] | 1600 | Down | −68.6 | No Change | 
3 | NCC(=O)COP(=O)(O)O [CL-005] | 6600 | Down | −78.2 | Up | significantly reduced
4 | O=C(NC1CCNCC1)c1n[nH]cc1NC(=O)c1c(Cl)cccc1Cl [CL-006] | 1700 | Down | −66.2 | No Change | 
5 | CCn1cnc2c(N)ncnc21 [CL-007] | 13000 | Down | −72.5 | Up | significantly reduced
6 | CN(Cc1cnc2nc(N)nc(N)c2n1)c1ccc(C(=O)N[C@@H](CCC(=O)O)C(=O)O)cc1 [CL-009, N-[4-[[(2,4-diamino-6-pteridinyl)methyl]methylamino]benzoyl]-L-glutamic acid] | 430 | Down | −53.0 | Up | significantly reduced

Further lines, with some results ahead:

Row | EC50 [2] [nM] | Structure (SMILES) | Rho protein level (Dot blot) (P23H rhodopsin [1]) | Efficacy, Rluc assay Hek293 (RHO^P23H − Rluc) [2] [%] | Rate of Rho^P23H degradation (Pulse-chase) (P23H rhodopsin [3]) | BTN-AHA labeled P23H rhodopsin at 24 h of chase (P23H rhodopsin [3])
7 | 1100 | CC(=O)OC(CC(=O)[O-])C[N+](C)(C)C (centres unmarked) [CL-001] | Down | −69.4 | Up | significantly reduced
8 | 890 | O=C(O)C1=CC=CC(O)C1O (centres unmarked) [CL-003] | Down | −65.3 | No Change | 
9 | 930 | CCC(C)(O)C(O)C(=O)O (centres unmarked) [CL-008] | Down | −89.5 | No Change | 
